# Reference: paper PMC8359193, “Summary of reference chemicals evaluated by the fish short‐term reproduction assay, OECD TG229, using Japanese Medaka, Oryzias latipes” (Journal of Applied Toxicology, 2021)
# Structures can show the parent of a compound that is named as a salt.
# System: Japanese medaka (Oryzias latipes)
# Experiment: Fish short-term reproduction assay (FSTRA, OECD TG229), 21-day flow-through exposure
# Conditions: for GSI Female / GSI Male / HSI Female / HSI Male / Length Female / Length Male / Weight Female / Weight Male: at completion of exposure
# Procedure: The experimental studies on the FSTRA for the 16 chemicals were conducted in two laboratories in Japan, the National Institute for Environmental Studies (NIES, Lab‐1) and the Institute of Environmental Ecology, IDEA Consultants Inc. (Lab‐2), in accordance with OECD TG229 (OECD, [2012a]) (Table 1).
# The NIES‐R strain of Japanese medaka (O. latipes), one of the orange‐red varieties, was used in all the 16 chemical studies. For the studies, healthy and mature male and female medakas at 16 ± 2 weeks old were selected from a single‐stock population, which were bred within the test facilities. The test fish were maintained in conditions similar to the assay for at least 7 days, and spawning status was checked during the acclimation period. On the day the chemical exposure commenced, to ensure balanced distribution of test fish between the treatment groups for the reproductive status of the fish, the replicate vessels (fish tanks), with each containing three male and female medaka, were distributed to each treatment and control group, for example, by a randomized block design based on the number of fertilized eggs laid in the last 5–7 days during the acclimation, in each assay.
# The water solubility of the test chemical was also taken into consideration when deciding the highest test concentration. To set the lower concentrations, a spacing factor ranging between two and five was used. All assays included a dilution water control (DWC).
# Test solutions at the selected concentrations were prepared by diluting a stock solution, which was prepared by an adequate method depending on the physicochemical properties of the test chemicals, for example, by simply mixing the test chemical in dilution water by stirring and/or sonicating for an appropriate time or by using a solid–liquid saturator. In the two laboratories, flow‐through exposure systems, in which a series of test solutions at the target concentrations can be continuously prepared and delivered to test vessels at controlled flow rates (Haselman et al., [2016]; Watanabe et al., [2017]), were used for the exposure experiments.
# In the FSTRA, three mature adult males and females in a test vessel were exposed together to the test chemicals in flow‐through condition for 3 weeks. In all the assays, each treatment group, including the DWC group, contained four replicate tanks. During the exposure period, the fish were fed a sufficient amount of live brine shrimp nauplii (newly hatched Artemia sp.) for daily spawning ad libitum. Fecal material in the tanks was appropriately removed by siphoning after feeding. Water temperature of test solutions was recorded for at least one vessel in each treatment and control group every day and for all vessels at least once a week. Furthermore, dissolved oxygen and pH of test solutions were measured for all test vessels at least once a week. Mortality and abnormal behavior and appearance in the fish exposed to test chemicals were daily observed, and any fish that died were removed from the tank as soon as possible. To assess the reproductive status, all eggs females spawned were collected every day. At the completion of the chemical exposure, surviving fish in each tank were sampled.
# The eggs females released on the bottom of the tank were collected by siphoning, and the egg clutches still on female abdomen were carefully picked from the body of the females captured using a small net. All the eggs collected were microscopically observed and separately counted for fertilized and unfertilized.
# [1] = measured conc. 63.9 μg/L, 21 days
# [2] = measured conc. 203 μg/L, 21 days
# [3] = measured conc. 721 μg/L, 21 days
# [4] = measured conc. 2080 μg/L, 21 days
compound,measurement,setting,value
"O=C(c1ccc(OCCN2CCCCC2)cc1)c1c(-c2ccc(O)cc2)sc2cc(O)ccc12 [RAL, Raloxifene hydrochloride]",LOEC for decrease of VTG in females,"hepatic VTG, 21-day exposure, measured conc.",721 µg/L
same,Fertility rate (%),[1],87%
same,Mortality (%) Female,[1],0%
same,Mortality (%) Male,[1],0%
same,Number of fertilized eggs,[1],16
same,Number of total eggs,[1],18 ± 4.2 /female/day
same,SSC Female,[1],0 ± 0
same,VTG (ng/mg of liver) Male,[1],19.6 ± 5.7 ng/mg of liver
same,GSI Female,measured conc. 63.9 μg/L,9.6%
same,GSI Male,measured conc. 63.9 μg/L,1.03%
same,HSI Female,measured conc. 63.9 μg/L,3.2%
same,HSI Male,measured conc. 63.9 μg/L,1.5%
same,Length Female,measured conc. 63.9 μg/L,36.9 mm
same,Length Male,measured conc. 63.9 μg/L,37.5 mm
same,Weight Female,measured conc. 63.9 μg/L,555 mg
same,Weight Male,measured conc. 63.9 μg/L,511 mg
same,Fertility rate (%),[2],86%
same,Mortality (%) Female,[2],0%
same,Mortality (%) Male,[2],0%
same,Number of fertilized eggs,[2],14
same,Number of total eggs,[2],16 ± 2.6 /female/day
same,SSC Female,[2],0 ± 0
same,SSC Male,[2],118 ± 15
same,VTG (ng/mg of liver) Female,[2],652 ± 82.4 ng/mg of liver
same,VTG (ng/mg of liver) Male,[2],30.2 ± 11.4 ng/mg of liver
same,GSI Female,measured conc. 203 μg/L,10.2%
same,GSI Male,measured conc. 203 μg/L,0.97%
same,HSI Female,measured conc. 203 μg/L,2.9%
same,HSI Male,measured conc. 203 μg/L,1.6%
same,Length Female,measured conc. 203 μg/L,37.8 mm
same,Length Male,measured conc. 203 μg/L,38.4 mm
same,Weight Female,measured conc. 203 μg/L,600 mg
same,Weight Male,measured conc. 203 μg/L,550 mg
same,Fertility rate (%),[3],82%
same,Mortality (%) Female,[3],0%
same,Mortality (%) Male,[3],0%
same,Number of fertilized eggs,[3],14
same,Number of total eggs,[3],17 ± 2.6 /female/day
same,SSC Female,[3],0 ± 0
same,VTG (ng/mg of liver) Female,[3],368 ± 68.4 ng/mg of liver
same,VTG (ng/mg of liver) Male,[3],24.1 ± 13.7 ng/mg of liver
same,GSI Female,measured conc. 721 μg/L,10.5%
same,GSI Male,measured conc. 721 μg/L,0.96%
same,HSI Female,measured conc. 721 μg/L,3.4%
same,HSI Male,measured conc. 721 μg/L,1.5%
same,Length Female,measured conc. 721 μg/L,38.8 mm
same,Length Male,measured conc. 721 μg/L,39.0 mm
same,Weight Female,measured conc. 721 μg/L,638 mg
same,Weight Male,measured conc. 721 μg/L,612 mg
same,Fertility rate (%),[4],72%
same,Mortality (%) Female,[4],0%
same,Mortality (%) Male,[4],0%
same,Number of fertilized eggs,[4],14
same,Number of total eggs,[4],19 ± 2.5 /female/day
same,SSC Female,[4],0 ± 0
same,VTG (ng/mg of liver) Female,[4],305 ± 99.8 ng/mg of liver
same,VTG (ng/mg of liver) Male,[4],17.2 ± 3.5 ng/mg of liver
same,GSI Female,measured conc. 2080 μg/L,11.5%
same,GSI Male,measured conc. 2080 μg/L,1.12%
same,HSI Female,measured conc. 2080 μg/L,4.7%
same,HSI Male,measured conc. 2080 μg/L,1.7%
same,Length Female,measured conc. 2080 μg/L,38.8 mm
same,Length Male,measured conc. 2080 μg/L,37.1 mm
same,Weight Female,measured conc. 2080 μg/L,675 mg
same,Weight Male,measured conc. 2080 μg/L,506 mg
